Experimental data as given in patent publication US9598416B2, “Substituted benzothienyl-pyrrolotriazines and uses thereof in the treatment cancer” (Bayer Intellectual Property GmbH, priority 2011, dated 2017).
pIC50: −log10 of the molar value. Where a name gives a salt, the structure may show the parent alone. Read-outs that look alike come from different tables or passages of the source.

Tests used:
human FGFR-3 = human FGFR-3 (Homo sapiens (Human), UniProt P22607); assay: FGFR-3 kinase assay (TR-FRET); type: biochemical; settings: 10 μM ATP; compounds of the invention
human mTOR = human mTOR (Homo sapiens (Human), UniProt P42345); assay: mTOR kinase assay (TR-FRET, for comparative purposes); type: biochemical; settings: for inhibition at 1 µM: read-out: mTOR % inhibition @ 1 μM
From the text: mTOR inhibitory activity of the compounds of the present invention was quantified employing the TR-FRET based mTOR assay as described in the following paragraphs: Recombinant fusion tagged mTOR protein [glutathione-S-transferase (GST) fused to human mTOR amino acids from 1360 to 2549], expressed in insect cells and purified by glutathione-sepharose affinity chromatography, was purchased from Invitrogen (Cat.-No. 4753) and used as enzyme. As substrate for the kinase reaction, a recombinant fusion protein of GFP and 4E-BP1 (purchased from Invitrogen, Cat.-No. PV4759) was used. Test compounds were dissolved in DMSO to generate 10 mM stock solutions. […] The resulting mixture was incubated for 1 h at 22° C. to allow formation of the complex between the phosphorylated substrate and the Tb-chelate labelled antibody. Subsequently, the amount of phosphorylated substrate was evaluated by measurement of the resonance energy transfer from the Tb-chelate to the GFP. For this, the fluorescence emissions at 495 nm and 520 nm after excitation at 340 nm was measured in an Envision 2104 multilabel reader (Perkin-Elmer). The ratio of the emissions at 520 nm and at 495 nm was taken as the measure for the amount of phosphorylated substrate.

[1] = 1 μM test compound, mean inhibition values

human FGFR-3, sequence (P22607 397-806): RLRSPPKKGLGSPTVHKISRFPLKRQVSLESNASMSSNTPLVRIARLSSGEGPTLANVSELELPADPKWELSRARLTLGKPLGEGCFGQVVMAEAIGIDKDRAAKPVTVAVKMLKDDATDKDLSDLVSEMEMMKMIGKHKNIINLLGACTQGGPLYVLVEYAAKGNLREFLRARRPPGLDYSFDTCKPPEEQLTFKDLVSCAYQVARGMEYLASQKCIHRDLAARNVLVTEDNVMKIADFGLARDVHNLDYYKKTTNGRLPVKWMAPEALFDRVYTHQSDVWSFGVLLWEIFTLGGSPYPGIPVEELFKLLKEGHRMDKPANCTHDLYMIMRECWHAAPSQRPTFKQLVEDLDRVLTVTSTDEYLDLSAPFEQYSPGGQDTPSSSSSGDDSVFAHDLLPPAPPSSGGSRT
human mTOR, sequence (P42345 1360-2549): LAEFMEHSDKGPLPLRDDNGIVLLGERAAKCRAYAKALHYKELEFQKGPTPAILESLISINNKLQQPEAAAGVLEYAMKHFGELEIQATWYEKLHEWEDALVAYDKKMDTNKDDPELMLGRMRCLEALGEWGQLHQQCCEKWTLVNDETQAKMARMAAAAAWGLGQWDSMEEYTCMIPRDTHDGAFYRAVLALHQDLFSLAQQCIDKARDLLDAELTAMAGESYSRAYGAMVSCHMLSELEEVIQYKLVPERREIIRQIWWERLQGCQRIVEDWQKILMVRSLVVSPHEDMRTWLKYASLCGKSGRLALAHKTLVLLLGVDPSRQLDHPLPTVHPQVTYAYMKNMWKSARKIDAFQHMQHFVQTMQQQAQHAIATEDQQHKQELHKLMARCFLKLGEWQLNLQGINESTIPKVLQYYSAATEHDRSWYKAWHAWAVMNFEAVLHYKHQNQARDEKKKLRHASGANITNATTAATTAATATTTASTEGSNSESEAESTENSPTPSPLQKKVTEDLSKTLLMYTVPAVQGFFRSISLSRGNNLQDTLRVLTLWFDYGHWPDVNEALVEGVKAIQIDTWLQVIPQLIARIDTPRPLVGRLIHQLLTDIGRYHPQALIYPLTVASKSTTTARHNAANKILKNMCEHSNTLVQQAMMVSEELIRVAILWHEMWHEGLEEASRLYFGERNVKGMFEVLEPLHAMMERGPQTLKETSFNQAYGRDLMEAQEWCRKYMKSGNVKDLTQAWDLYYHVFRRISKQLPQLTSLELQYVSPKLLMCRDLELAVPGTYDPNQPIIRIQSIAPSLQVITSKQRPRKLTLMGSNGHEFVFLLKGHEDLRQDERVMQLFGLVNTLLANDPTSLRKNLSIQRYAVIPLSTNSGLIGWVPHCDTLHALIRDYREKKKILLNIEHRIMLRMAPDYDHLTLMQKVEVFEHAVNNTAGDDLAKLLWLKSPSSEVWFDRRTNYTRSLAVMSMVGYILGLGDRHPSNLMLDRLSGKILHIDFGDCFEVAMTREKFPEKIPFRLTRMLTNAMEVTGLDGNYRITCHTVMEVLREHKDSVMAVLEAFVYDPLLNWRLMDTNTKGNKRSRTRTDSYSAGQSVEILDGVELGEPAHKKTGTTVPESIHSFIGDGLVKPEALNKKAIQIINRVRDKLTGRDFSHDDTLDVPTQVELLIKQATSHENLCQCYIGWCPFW

pIC50 (human FGFR-3) | Structure (SMILES) | other results
7.73 | Cc1ccc2sc(-c3c(CN4CCNC(=O)C4)cn4ncnc(N)c34)cc2c1 [Example 29, 4-{[4-Amino-5-(5-methyl-1-benzothiophen-2-yl)pyrrolo[2,1-f][1,2,4]triazin-6-yl]methyl}piperazin-2-one] | inhibition at 1 µM (human mTOR; [1]): 0.6%
8.96 | COc1cc(C)cc2cc(-c3c(CN4CCC(C(N)=O)CC4)cn4ncnc(N)c34)sc12 [Example 64] | –
9.70 | COc1cc(C)cc2cc(-c3c(CNC(C)=O)cn4ncnc(N)c34)sc12 [Example 9, N-{[4-Amino-5-(7-methoxy-5-methyl-1-benzothiophen-2-yl)pyrrolo[2,1-f][1,2,4]triazin-6-yl]-methyl}acetamide] | mTOR % inhibition @ 1 μM (human mTOR; [1]): no inhib. effect detect.
8.74 | COc1cc(OC)c2sc(-c3c(CN4CCNC(=O)C4)cn4ncnc(N)c34)cc2c1 [Example 33, 4-{[4-Amino-5-(5,7-dimethoxy-1-benzothiophen-2-yl)pyrrolo[2,1-f][1,2,4]triazin-6-yl]methyl}-piperazin-2-one] | –
7.97 | COc1cc(C)cc2cc(-c3c(COCCN4CCCC4)cn4ncnc(N)c34)sc12 [Example 43] | –
8.03 | COc1cc(C)cc2cc(-c3c(COCCN4CCCCC4)cn4ncnc(N)c34)sc12 [Example 44] | –
8.85 | COc1cc(C)cc2cc(-c3c(CN4CCNC(=O)C4C)cn4ncnc(N)c34)sc12 (centres unmarked) [Example 55] | –
7.82 | COc1cc(C)cc2cc(-c3c(CN4CCS(=O)(=O)CC4)cn4ncnc(N)c34)sc12 [Example 77] | –
7.14 | COc1cc(C)cc2cc(-c3c(COCC(=O)O)cn4ncnc(N)c34)sc12 [Example 5, {[4-Amino-5-(7-methoxy-5-methyl-1-benzothiophen-2-yl)pyrrolo[2,1-f][1,2,4]triazin-6-yl]-methoxy}acetic acid] | inhibition at 1 µM (human mTOR; [1]): 2.7%
– | COc1cc(C)cc2cc(-c3c(CNCC(C)O)cn4ncnc(N)c34)sc12 (racemic) [Example 26, rac-1-({[4-Amino-5-(7-methoxy-5-methyl-1-benzothiophen-2-yl)pyrrolo[2,1-f][1,2,4]triazin-6-yl]-methyl}amino)propan-2-ol dihydrochloride] | mTOR % inhibition @ 1 μM (human mTOR; [1]): no inhib. effect detect.
8.21 | COc1cc(C)cc2cc(-c3c(CN4CCN(C5CC5)CC4)cn4ncnc(N)c34)sc12 [Example 58] | –
8.36 | COc1cc(C)cc2cc(-c3c(COCC(N)=O)cn4ncnc(N)c34)sc12 [Example 6, 2-{[4-Amino-5-(7-methoxy-5-methyl-1-benzothiophen-2-yl)pyrrolo[2,1-f][1,2,4]triazin-6-yl]-methoxy}acetamide] | inhibition at 1 µM (human mTOR; [1]): 11.3%
7.85 | COCCN(Cc1cn2ncnc(N)c2c1-c1cc2cc(C)cc(OC)c2s1)C(C)C [Example 49] | –
8.36 | COc1cc(C)cc2cc(-c3c(CN4CCCC(C(N)=O)C4)cn4ncnc(N)c34)sc12 (centres unmarked) [Example 69] | –
8.31 | COc1cc(C)cc2cc(-c3c(CN4CCOC(C)C4)cn4ncnc(N)c34)sc12 (centres unmarked) [Example 76] | –
9.15 | COc1cc(C)cc2cc(-c3c(CN4CCCCC4)cn4ncnc(N)c34)sc12 [Example 51] | –
9.70 | COc1cc(C)cc2cc(-c3c(COCCN)cn4ncnc(N)c34)sc12 [Example 8, 6-[(2-Aminoethoxy)methyl]-5-(7-methoxy-5-methyl-1-benzothiophen-2-yl)pyrrolo[2,14][1,2,4]-triazin-4-amine dihydrochloride] | inhibition at 1 µM (human mTOR; [1]): 4.7%
8.51 | COc1cc(C)cc2cc(-c3c(CN4CNC(=O)C4)cn4ncnc(N)c34)sc12 [Example 56] | –
– | COc1cc(C)cc2cc(-c3c(CO)cn4ncnc(N)c34)sc12 [Example 32, [4-Amino-5-(7-methoxy-5-methyl-1-benzothiophen-2-yl)pyrrolo[2,1-f][1,2,4]triazin-6-yl]methanol] | mTOR % inhibition @ 1 μM (human mTOR; [1]): no inhib. effect detect.
8.40 | COc1cc(C)cc2cc(-c3c(CN(C)CC(C)OC)cn4ncnc(N)c34)sc12 (centres unmarked) [Example 59] | –
9.22 | COc1cc(C)cc2cc(-c3c(CN4CCCC(N(C)C)C4)cn4ncnc(N)c34)sc12 (centres unmarked) [Example 67] | –
7.90 | COc1cc(C)cc2cc(-c3c(CN4CCC(OC)CC4)cn4ncnc(N)c34)sc12 [Example 60] | –

pIC50 (human FGFR-3) | Structure (SMILES) | other results
7.90 | COc1cc(C)cc2cc(-c3c(COCCCC#N)cn4ncnc(N)c34)sc12 [Example 41] | –
7.82 | COc1cc(C)cc2cc(-c3c(CN4CC(OC)C4)cn4ncnc(N)c34)sc12 [Example 53] | –
8.42 | COc1cc(C)cc2cc(-c3c(CN4CCOC(C)(C)C4)cn4ncnc(N)c34)sc12 [Example 52] | –
8.59 | COc1cc(C)cc2cc(-c3c(CN4CCCC(OC)C4)cn4ncnc(N)c34)sc12 (centres unmarked) [Example 62] | –
8.52 | COc1cc(C)cc2cc(-c3c(CN(C)C4CCS(=O)(=O)C4)cn4ncnc(N)c34)sc12 (centres unmarked) [Example 57] | –
8.64 | COc1cc(C)cc2cc(-c3c(CN4CCCOCC4)cn4ncnc(N)c34)sc12 [Example 54] | –
7.52 | COc1cc(C)cc2cc(-c3c(COCCN4CCOCC4)cn4ncnc(N)c34)sc12 [Example 42] | –
10.00 | COc1cc(C)cc2cc(-c3c(CN4CCN(C)CC4)cn4ncnc(N)c34)sc12 [Example 50] | –
8.52 | COc1cc(C)cc2cc(-c3c(CN4CCC(F)(F)C4)cn4ncnc(N)c34)sc12 [Example 63] | –
8.26 | COc1cc(C)cc2cc(-c3c(CNC4CCS(=O)(=O)C4)cn4ncnc(N)c34)sc12 (centres unmarked) [Example 72] | –
8.04 | COc1cc(C)cc2cc(-c3c(COCC#N)cn4ncnc(N)c34)sc12 [Example 40] | –
8.44 | COc1cc(C)cc2cc(-c3c(CNC4CC4)cn4ncnc(N)c34)sc12 [Example 48] | –
9.22 | COc1cc(C)cc2cc(-c3c(CN4CC[C@@H](N(C)C)C4)cn4ncnc(N)c34)sc12 [Example 65] | –
8.64 | COc1cc(C)cc2cc(-c3c(CNC4CCOC4)cn4ncnc(N)c34)sc12 (centres unmarked) [Example 73] | –
8.30 | CCC(C)NCc1cn2ncnc(N)c2c1-c1cc2cc(C)cc(OC)c2s1 (centres unmarked) [Example 74] | –
9.00 | COc1cc(C)cc2cc(-c3c(CN4CCCC4)cn4ncnc(N)c34)sc12 [Example 47] | –
7.61 | COc1cc(C)cc2cc(-c3c(COCCCN(C)C)cn4ncnc(N)c34)sc12 [Example 45] | –
9.30 | COc1cc(C)cc2cc(-c3c(CN4CC[C@H](N(C)C)C4)cn4ncnc(N)c34)sc12 [Example 66] | –
7.84 | COc1cc(C)cc2cc(-c3c(CN(C)CC(F)(F)F)cn4ncnc(N)c34)sc12 [Example 61] | –
9.10 | COc1cc(C)cc2cc(-c3c(CN4CCCN(C)CC4)cn4ncnc(N)c34)sc12 [Example 68] | –
8.13 | COCCN(C)Cc1cn2ncnc(N)c2c1-c1cc2cc(C)cc(OC)c2s1 [Example 70] | –

Structure (SMILES) | pIC50 (human FGFR-3) | other results
COc1cc(C)cc2cc(-c3c(CNCCO)cn4ncnc(N)c34)sc12 [Example 10, 2-({[4-Amino-5-(7-methoxy-5-methyl-1-benzothiophen-2-yl)pyrrolo[2,1-f][1,2,4]triazin-6-yl]-methyl}amino)ethanol dihydrochloride] | 8.85 | inhibition at 1 µM (human mTOR): 10.3%
